Source: paper PMC8129715 (CPT: Pharmacometrics & Systems Pharmacology, 2021)
Read-outs that look alike come from different tables or passages of the source.

Legend:
[1] = pKa by capillary electrophoresis method; format: physicochemical
[2] = In vitro plasma protein binding; format: in vitro ADME, human; conditions: unpublished data reported by Eisai Inc.
[3] = Human blood to plasma concentration ratio; format: in vitro ADME
CYP3A4 [4] = target: CYP3A4 (Homo sapiens, UniProt P08684); assay: Metabolism by recombinant human CYP isoforms; format: in vitro ADME; conditions: 37°C for 20 min; unpublished data reported by Eisai Inc.
Chain of CYP3A4 (Homo sapiens, UniProt P08684) (P08684 whole entry, canonical isoform): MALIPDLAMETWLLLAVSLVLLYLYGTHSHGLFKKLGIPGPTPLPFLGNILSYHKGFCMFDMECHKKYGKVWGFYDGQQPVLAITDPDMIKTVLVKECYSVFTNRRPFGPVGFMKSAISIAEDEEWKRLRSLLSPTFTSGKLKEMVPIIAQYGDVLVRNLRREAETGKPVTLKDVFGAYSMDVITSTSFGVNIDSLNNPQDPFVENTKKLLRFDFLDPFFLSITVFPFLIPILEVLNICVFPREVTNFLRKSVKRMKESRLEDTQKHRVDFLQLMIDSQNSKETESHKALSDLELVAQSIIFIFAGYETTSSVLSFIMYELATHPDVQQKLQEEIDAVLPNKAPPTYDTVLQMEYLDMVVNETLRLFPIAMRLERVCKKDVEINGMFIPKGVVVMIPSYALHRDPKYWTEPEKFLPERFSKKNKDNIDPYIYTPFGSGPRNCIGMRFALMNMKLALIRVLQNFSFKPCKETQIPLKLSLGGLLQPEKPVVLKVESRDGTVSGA

[5] = tested on: other CYP isoforms (1A2, 2A6, 2B6, 2C8, 2C9, 2C19, 2D6, 2E1, 2J2, 3A5, 4F12); assay: Metabolism by recombinant human CYP isoforms; format: in vitro ADME; conditions: 37°C for 20 min; unpublished data reported by Eisai Inc.
[6] = tested on: cryopreserved human hepatocytes; assay: Metabolism in cryopreserved human hepatocytes with CYP inhibitors; format: in vitro ADME; conditions: 1-aminobenzotriazole, troleandomycin and ketoconazole
[7] = Biliary excretion in rats; format: in vivo
CYP3A [8] = assay: In vitro time-dependent inhibition; format: in vitro ADME; conditions: unpublished data reported by Eisai Inc.
CYP3A4 [9] = assay: In vitro induction; format: in vitro ADME; conditions: unpublished data reported by Eisai Inc.
CYP2B6 [10] = assay: In vitro induction; format: in vitro ADME; conditions: unpublished data reported by Eisai Inc.
[11] = PBPK simulation of lemborexant PK in healthy individuals; parameters: species or system human
[12] = cited from earlier work
[13] = human mass-balance study, cited from earlier work
P-glycoprotein = conditions: in vitro; cited from earlier work
[14] = tested on: breast cancer resistance protein; conditions: in vitro; cited from earlier work
CYP2B6 [15] = conditions: lemborexant 10 mg q.d. for 13 days, bupropion 75 mg on day 10, healthy adults; cited from earlier work
[16] = capsule, cited from earlier work; for Observed AUC(0-t) / Observed Cmax: geometric mean; for Observed Cmax: healthy individuals
[17] = multiple 10 mg oral doses, capsule, cited from earlier work
[18] = single 10 mg oral dose, IR tablet, DDI study, cited from earlier work
[19] = single 10 mg oral dose, IR tablet, ref study E2006-A001-008 (NCT02089412), cited from earlier work; for Observed Cmax: geometric mean
CYP3A [20] = conditions: cited from earlier work
[21] = cited from earlier work; remark: listed apart in the source
[22] = multiple 10 mg oral doses, day 1
[23] = multiple 10 mg oral doses, day 14
[24] = single 10 mg oral dose, IR tablet, fasted, food effect study
[25] = single 10 mg oral dose, IR tablet, fed
[26] = single 10 mg oral dose, solution vs capsule
[27] = single 100 mg oral dose, solution vs capsule
[28] = co-administration with rifampicin 600 mg q.d.
[29] = lemborexant 10 mg with fluconazole 200 mg q.d.

Cc1ncc(OC[C@@]2(c3cccc(F)c3)C[C@H]2C(=O)Nc2ccc(F)cn2)c(C)n1 [lemborexant]
pKa [1]: < 3.5
Main binding protein in plasma [2]: human serum albumin, low‐density lipoprotein, and high‐density lipoprotein
blood plasma ratio ([3]; B:P (blood-to-plasma partition ratio), mean, mean value from unpublished data reported by Eisai Inc.): 0.636
blood plasma ratio ([3]; human blood to plasma concentration ratio (B:P), concentration range 100–1000 ng/ml, unpublished data reported by Eisai Inc.): 0.61 to 0.656
residual ratio after incubation with recombinant CYP3A4 (CYP3A4 [4]): 30%
residual ratio after incubation with other recombinant CYP isoforms [5]: ≥ 81%
lemborexant metabolism in human hepatocytes in presence of CYP inhibitors [6]: completely inhibited
biliary excretion of lemborexant [7]: no biliary excretion
time-dependent inhibition on CYP3A (CYP3A [8]): weak
inductive effect on CYP3A4 (CYP3A4 [9]): weak
inductive effect on CYP2B6 (CYP2B6 [10]): weak
fold difference (predicted/observed) of Cmax ratio for fasted and fed conditions ([11]; food effect study 008, 10 mg IR tablet): 0.768
Fold difference, predicted/observed, AUC(0-t) [11, 22]: 0.92
Fold difference, predicted/observed, Cmax [11, 22]: 0.86
Fold difference, predicted/observed, AUC(0-t) [11, 23]: 1.02
Fold difference, predicted/observed, Cmax [11, 23]: 0.73
Fold difference, predicted/observed, AUC(0-t) ([11]; single 2.5 mg oral dose, solution vs capsule): 0.89
Fold difference, predicted/observed, AUC(0-t) ([11]; single 10 mg oral dose, IR tablet): 0.80
Fold difference, predicted/observed, AUC(0-t) [11, 24]: 0.85
Fold difference, predicted/observed, Cmax [11, 24]: 0.45
Fold difference, predicted/observed, AUC(0-t) [11, 25]: 0.71
Fold difference, predicted/observed, Cmax [11, 25]: 0.34
Fold difference, predicted/observed, AUC(0-t) [11, 26]: 1.29
Fold difference, predicted/observed, Cmax [11, 26]: 0.85
Fold difference, predicted/observed, AUC(0-t) [11, 27]: 0.76
Fold difference, predicted/observed, Cmax [11, 27]: 1.08
in vitro plasma protein binding (bound) ([12]; human plasma, 100–1000 ng/ml, no concentration dependency): 87.4–88.7%
Fu (fraction unbound in plasma) ([12]; mean value based on lemborexant 100 ng/ml): 0.113
CL/F (apparent oral clearance) ([13]; 10 mg capsule): 32.8 L/h
unchanged lemborexant in feces ([13]; [14C]lemborexant 10 mg): 13.0 % of dose
unchanged lemborexant in urine ([13]; [14C]lemborexant 10 mg): not detected
transport of lemborexant via P-glycoprotein (P-glycoprotein): negligible
transport of lemborexant via breast cancer resistance protein [14]: negligible
decrease in plasma exposures of S-bupropion (CYP2B6 [15]): 45.5%
Observed AUC(0-t) ([16]; single 2.5 mg oral dose): 74.4 ng·h/mL
Observed Cmax ([16]; single 2.5 mg oral dose): 14.9 ng/mL
Observed AUC(0-t) ([16]; single 10 mg oral dose): 274 ng·h/mL
Observed Cmax ([16]; single 10 mg oral dose): 32.0 ng/mL
Observed Tmax ([16]; single 10 mg oral dose, median): 1.00 h
Observed AUC(0-t) ([16]; single 100 mg oral dose): 4,300 ng∙h/ml
Observed Cmax ([16]; single 100 mg oral dose): 242 ng/mL
Observed AUC(0-t) ([17]; day 1, geometric mean): 182 ng·h/mL
Observed Cmax ([17]; day 1, geometric mean): 28.0 ng/mL
Observed Tmax ([17]; day 1, median): 3.25 h
Observed AUC(0-t) ([17]; day 14, geometric mean): 321 ng·h/mL
Observed Cmax ([17]; day 14, geometric mean): 44.8 ng/mL
Observed Tmax ([17]; day 14, median): 1.75 h
Observed AUC(0-t) ([18]; geometric mean): 411 ng·h/mL
Observed Tmax ([18]; median): 1.00 h
Observed Cmax ([18]; healthy individuals, geometric mean): 54.3 ng/mL
Observed Cmax ([19]; fasted, food effect study): 57.1 ng/mL
Observed Tmax ([19]; fasted, food effect study, median): 1.00 h
Observed Cmax ([19]; fed (standard high-fat meal)): 44.1 ng/mL
increase in AUCR with strong and moderate CYP3A inhibitors (CYP3A [20]; co-administered with itraconazole and fluconazole): ≤ 3.8 fold
reduction of lemborexant AUC(0-inf) (CYP3A [20]; [28]): 97%
reduction of lemborexant Cmax (CYP3A [20]; [28]): 92%
increase in lemborexant AUC(0-t) (CYP3A [20]; [29]): 3.8 fold
increase in lemborexant Cmax (CYP3A [20]; [29]): 1.6 fold
increase in lemborexant Cmax (CYP3A [20]; lemborexant 10 mg with itraconazole 200 mg q.d.): 1.36 fold
clinical efficacy (sleep) ([21]; doses of 5 mg and above): clinically meaningful sleep benefits
somnolence adverse events ([21]; lemborexant exposures greater than 10 mg): increased risk of somnolence adverse events
